Tests used:
[1] = Relative oral, non-gastric retention bioavailability of irinotecan and SN-38 derived from literature; format: in vivo; conditions: human, blood (bloodstream); oral non-gastric retention relative to intravenous; read-out: Calculated Relative Bioavailabilty of Lactone [formula]
From the text: Quantity “A” is the total area under the bloodstream concentration curve over time.
ATotal=ALactone+ACarboxylate is the sum of the areas under the curve of lactone and carboxylate forms of the species.

[2] = cited from earlier work
topoisomerase I = molecular target: T1, topoisomerase I (Homo sapiens, UniProt P11387); conditions: cited from earlier work
T1 sequence (P11387 1-765): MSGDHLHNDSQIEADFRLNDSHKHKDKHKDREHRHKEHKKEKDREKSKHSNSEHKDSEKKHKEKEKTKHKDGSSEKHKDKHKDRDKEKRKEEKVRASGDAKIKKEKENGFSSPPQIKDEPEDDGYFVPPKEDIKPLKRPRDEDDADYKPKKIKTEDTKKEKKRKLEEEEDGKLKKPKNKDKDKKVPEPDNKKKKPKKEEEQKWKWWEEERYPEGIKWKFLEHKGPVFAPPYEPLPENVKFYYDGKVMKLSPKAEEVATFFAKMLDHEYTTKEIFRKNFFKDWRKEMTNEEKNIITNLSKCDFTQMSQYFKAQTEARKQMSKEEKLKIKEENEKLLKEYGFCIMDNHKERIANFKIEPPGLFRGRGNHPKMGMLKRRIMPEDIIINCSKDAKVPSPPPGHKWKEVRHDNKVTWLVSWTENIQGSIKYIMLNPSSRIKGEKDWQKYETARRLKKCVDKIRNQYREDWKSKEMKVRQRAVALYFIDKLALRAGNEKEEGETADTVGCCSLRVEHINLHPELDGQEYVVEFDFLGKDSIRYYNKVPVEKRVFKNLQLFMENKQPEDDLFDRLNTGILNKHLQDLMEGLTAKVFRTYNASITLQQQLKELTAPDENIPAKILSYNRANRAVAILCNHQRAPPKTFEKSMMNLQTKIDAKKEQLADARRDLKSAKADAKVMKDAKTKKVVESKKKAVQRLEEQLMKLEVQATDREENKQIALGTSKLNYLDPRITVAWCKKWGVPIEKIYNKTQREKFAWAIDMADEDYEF

[3] = Systemic delivery of irinotecan and SN-38 after GRDS tablet versus i.v. in the beagle dog; conditions: irinotecan in gastric retention dosage form, oral
Method: A plot of plasma concentration against time allows calculation of the area under the curves and the relative bioavailability of the various forms of the drug.
Prior to the study, an adequate amount (5-10 ml) of whole blood is drawn from each dog. The blood is used to prepare the standard calibration reference curve. At the study, the foreleg (right or left, as deemed appropriate by the animal handler), is shaved using an electric shaver, and the area cleansed with a chlorhexidine swab. A permanent in-dwelling polyethylene catheter is inserted using a 23 gauge needle in the cephalic vein in the foreleg of each dog and taped in place to allow for periodic blood sampling over 12 hours. […]
At each time point, 2.0 ml blood is removed by syringe and then placed into a pre-labeled heparinized test tube. […] The concentration of the components are measured using literature HPLC methods.
The dogs are fasted overnight for a period of at least 12 hours at which time they receive a single mixed meal of solid food and liquid nutrients. 250 grams of bite-size commercial dog chow (Bonzo Feed®) are measured and placed in a feeding dish. […] The food remaining in the dish is measured and the difference from the original 250 grams is recorded as the amount of food consumed. […]
Two hours after the meal, the dog is dosed with the test tablet. […] The methanol samples are analyzed by HPLC. […]

Row | bioavailability [1] [%] | Structure (SMILES) | [formula] ratio of lactone AUC to total AUC, intravenous ([2]; irinotecan given intravenously) | [formula] overall delivery to the bloodstream, total AUC oral relative to intravenous ([2]; irinotecan given orally, conventional non-gastric retention, vs IV, lactone + carboxylate) | [formula] ratio absorbed in the lactone form (lactone AUC / total AUC), oral ([2]; irinotecan given orally, conventional non-gastric retention) | Potency as inhibitor of topoisomerase I relative to irinotecan (topoisomerase I) | Ratio absorbed in the lactone form [formula] [3] | Overall delivery to the bloodstream [formula], gastric retention relative to intravenous ([3]; vs IV)
1 | 12 | CCc1c2c(nc3ccc(OC(=O)N4CCC(N5CCCCC5)CC4)cc13)-c1cc3c(c(=O)n1C2)COC(=O)[C@]3(O)CC [Irinotecan] |  |  |  |  |  | 
2 |  | CCc1c2c(nc3ccc(O)cc13)-c1cc3c(c(=O)n1C2)COC(=O)[C@]3(O)CC [SN-38, 7-ethyl-10-hydroxycamptothecin] | 0.50 | 0.16 | 0.73 | approximately a thousand times more potent | 0.9 | 0.4
